Entries after “also recorded” stand apart in the source; their conditions may differ.
B1: G-CSF: Granulocyte colony-stimulating factor polypeptide, irradiation mitigator (protein, listed as Homo sapiens)
chain: MAGPATQSPMKLMALQLLLWHSALWTVQEATPLGPASSLPQSFLLKCLEQVRKIQGDGAALQEKLVSECATYKLCHPEELVLLGHSLGIPWAPLSSCPSQALQLAGCLSQLHSGLFLYQGLLQALEGISPELGPTLDTLQLDVADFATTIWQQMEELGMAPALQPTQGAMPAFASAFQRRAGGVLVASHLQSFLEVSYRVLRHLAQP

Tests used:
[1] = tested on: C57BL/6NTac mice irradiated to 9.25 Gy total body irradiation; experiment: Survival after 9.25 Gy total body irradiation (TBI); assay type: in vivo, mouse; conditions: 9.25 Gy TBI; for 30 days survival: JP4-039 20 mg/kg I.M., G-CSF 4 mg/kg I.P. at 24 h, n=10, irradiated controls 20%; for survival at 30 days after TBI: treatment 24 hrs later, FIG. 7, irradiated control 10%
Text: Mice and Animal Care. Female C57BL/6NTac (Taconic Biosciences, Wayne, Pa.) and C57BL/6 lgr5+ green fluorescent protein tagged (5-6) lgr5+ mice were housed 5 per cage and fed standard laboratory chow and deionized drinking water according to University of Pittsburgh IACUC regulations.
Irradiation. Total body irradiation was delivered with a cesium-137 Gamma Cell irradiator with filters removed at a dose rate of […], beam flatness, homogeneity, and analysis of spectrum of gamma ray precise dosimetry were carried out. Mice were irradiated in a plexiglass pie plate that contains 12 sections. Five mice were placed in each pie plate. The mice were not placed in adjacent sections, but had one or two empty sections between mice so that the mice would not shield the other mice in the pie plate. Thermoluminescent (TLD) readings according to published methods. [Steinman J, et al., Improved total- body irradiation survival by delivery of two radiation mitigators that target distinct cell death pathways. Radiat Res 189(1): 68-83, 2018.]
Dose Response Curve of Number of Gavaged Lactobacillus-reuteri, or E. coli Producing IL-22 or IFN-β. Mice were irradiated to 9.25 Gy TBI, which took 13-14 minutes, and were then 24 h later gavaged with 100 μL saline solution containing Lactobacillus reuteri-IL-22, or E. coli-IL-22, or at 48 hrs post irradiation E. coli-IFN-β (based on the known time of requirement for IFN-β by lgr5+ cells at this time). All groups of mice received 100 μL saline, which contained varying numbers of bacteria ranging from 10^9, 10^8, 10^7, to 10^6 bacteria (n=10 animals per group).
Administration of Small Molecule Radiation Mitigator, IL-22 Protein, L. reuteri Lacking IL-22, or Gavaged Fecal Microbiome. As a control for probiotic mitigators, the GS-nitroxide, JP4-039 [Rwigema J -CM, et al., Two strategies for the development of mitochondrial-targeted small molecule radiation damage mitigators. Int J Radiat Oncol Biol Phys 80(3): 860-868, 2011], was prepared and administered according to published methods, I.M. at 20 mg/kg in 50 μL of 30% cyclodextrin aqueous [Epperly M W, et al., Evaluations of different formulations and routes for the delivery of the ionizing radiation mitigation GS-nitroxide (JP4-039). In Vivo 32: 1009-1023, 2018]. Cyclodextrin alone has no radiomitigative effect. […]
10^9 L. reuteri lacking IL-22 was administered in 100 μl/saline. A similar number of bacteria from feces obtained from 30-day survivors of 9.25 Gy TBI was gavaged. Fecal microbiome transplant (FMT) was carried out by delivery by gavage in 100 μL saline; 10^9 bacteria from the feces of 30-day survivors of 9.25 Gy TBI of C57BL/6 female mice.
C57BL/6NTac mice were irradiated to 9.25 Gy total body irradiation and gavaged with Lactobacillus reuteri-IL-22 or Lactobacillus reuteri harboring the empty vector control. […]
To determine whether successful radiation mitigation correlated with changes in the intestinal microbiome, groups of mice received 9.25 Gy total body irradiation (TBI) and subgroups treated with the small molecule radiation mitigator, JP4-039 (20 mg/kg in 50 microliters of 30% 2-hydroxypropyl-β-cyclodextrin I.M.), G-CSF (4 mg/kg I.P.), or both mitigators at 24 h after TBI. Fecal pellets were analyzed pre-irradiation, and at days 1, 3, 5, 7, 10, 14, 21, and 30 after irradiation. […]

IL-22 = experiment: Intestinal level of IL-22 after TBI; assay type: in vivo, mouse; conditions: 9.25 Gy TBI; treatment at 24 h; FIG. 17A

| Molecule | 30 days survival [1] [%] | survival at 30 days after TBI [1] [%] | intestinal level of IL-22 after TBI (IL-22) | survival compared to irradiation only mice ([1]; treatment 24 hr after, IL-22 protein 0.1 mg/kg I.M., FIG. 9) |
| --- | --- | --- | --- | --- |
| CC(C)C[C@@H](/C=C/CC(=O)NC1CC(C)(C)N([O])C(C)(C)C1)NC(=O)OC(C)(C)C [JP4-039] | 50 | 70 | restored IL-22 levels | – |
| IL-22 protein: recombinant IL-22 protein injected as control | – | 40 | – | significantly increased survival; also recorded: significantly improved survival |
| B1 | 70 | – | – | – |

From patent US20220362340A1, “COMPOSITIONS AND USES THEREOF FOR TREATING IRRADIATION-INDUCED INTESTINAL DAMAGE” (UNIVERSITY OF PITTSBURGH-OF THE COMMONWEALTH SYSTEM OF …, priority 2019, published 2022)
